Data on 2 compounds can be found in patent US20090118255A1, “Crp Lowering Agent” (TAKEDA PHARMACEUTICAL COMPANY LIMITED, priority 2004, published 2009).

One test has as its system CRP. The following applies: literature reports (Ballantyne 2003; Sager 2003); cited from earlier work.
The subject of a further test is plasma CRP. The test is described as follows: Plasma CRP lowering effect, WHHL rat, 28 days oral with mixed food. Type of test: in vivo. The following applies: male WHHL rat, mean ± SE, N = 11. As for the experimental part: To 2 month-old male WHHL […] (11 per group) was orally administered with a mixed food a vehicle or Test compound 1 at a dose of 100 and 200 mg/kg for 28 days. Before administration and after 28 days administration, plasma CRP level was determined using CRPα Test Wako (Wako Pure Chemical Industries, Ltd.) with Hitachi, Ltd. Autoanalyzer 7070 (Table 1).

With `O=C1[C@H](CC[C@H](O)c2ccc(F)cc2)[C@@H](c2ccc(O)cc2)N1c1ccc(F)cc1` [ezetimibe], in the test on CRP, the CRP lowering activity result is given as “no CRP lowering activity”.

For the compound `COc1cccc([C@H]2O[C@H](CC(=O)N3CCC(CC(=O)O)CC3)C(=O)N(CC(C)(C)COC(C)=O)c3ccc(Cl)cc32)c1OC` [Test compound 1, N-[[(3R,5S)-1-(3-acetoxy-2,2-dimethylpropyl)-7-chloro-5-(2,3-dimethoxyphenyl)-2-oxo-1,2,3,5-tetrahydro-4,1-benzoxazepin-3-yl]acetyl]piperidine-4-acetic acid], the “Plasma CRP level, after 28 days administration” value in the test on plasma CRP (100 mg/kg orally with mixed food for 28 days) was 3.2 ± 0.6 mg/dL; in the test with plasma CRP (200 mg/kg orally with mixed food for 28 days, *P < 0.025 vs. control) it was 2.1 ± 0.2* mg/dL. In addition, the “Plasma CRP level, value of before administration” value is listed as 4.4 ± 0.4 mg/dL in the test with plasma CRP (baseline of the 100 mg/kg group) and 4.4 ± 0.6 mg/dL in the test with plasma CRP (baseline of the 200 mg/kg group).
